Test results reported in patent publication US12438175B2, “Aqueous organic-based electrolyte for redox flow battery” (KEMIWATT, priority 2019, dated 2025).
Converted amounts (≈) assume the structure as drawn. Counter-ions that a name gives are not always drawn.

Tests used:
[1] = Cyclic voltammetry / linear sweep voltammetry, electrochemical parameters; format: physicochemical; conditions: for E^0′ apparent standard redox potential / E1/2 half-wave potential: 5 mM, pH 14, 1 M KOH; for E1/2 half-wave potential: RDE; for k^0′O × 10^−2 apparent heterogeneous rate constant: Gileadi's equation; for DO × 10^−6 diffusion coefficient: Randles-Sevcik; for Peak-to-peak separation ΔEp: 100 mV/s, third cycle
Description: Cyclic voltammetry experiments were performed at a 100 mV/s scan rate for compounds M3CH, D3CH, D4CH, M3SH, D3SH, M4SH and D4SH in solution at pH 13 (KOH 0.1 M) or pH 14 (KOH 1 M).
The electrochemical experiments were conducted on an electrochemical working station (BioLogic Science Instruments VSP) at 25° C. using a three-electrodes electrochemical cell, where a Pt wire was employed at the counter electrode (CE), an Ag/AgCl/KCl saturated electrode immerged in a 1 M KOH solution protected from the cell by a porous frit glass served as the reference electrode (RE) and a rotating disc electrode (RDE) mounted with a glassy carbon (GC, 7.069 mm^2) disk was used as the working electrode (WE), respectively. The potential was reported relative to the normal hydrogen electrode (NHE), which was converted from the Ag/AgCl reference electrode (0.230 V versus NHE). The ohmic drop between the WE and RE is determined by current interrupt experiments and leads to a value close to 0.7069 Ω·cm^2. All cyclic voltammetry experiments were conducted by alleviating most of this resistance (85%) using the potentiostat manual ohmic drop compensation. Before each electrochemical measurement, the GC disk electrode was polished using SiC P4000 foil.
Each recorded cyclic voltammetry of the reduction and the oxidation process of a compound at a given scan rate is analyzed by measuring ip,a=anodic peak current; ip,c=cathodic peak current; v=scan rate; Ep,a=anodic peak potential; Ep,c=cathodic peak potential; ΔEp=Ep,a−Ep,c; the apparent standard redox potential E^0′=[…].
Linear sweep voltammetry (LSV) using the RDE at various rotation speed (400 up to 1 000 RPM) were performed to determine the averaged half-wave potential E1/2.
The oxidation (DO) and the reduction (DR) diffusion coefficients were calculated using Randles-Sevcik (RS) equation ip=0.4463·n^3/2·F^3/2·A·C·v^1/2·D^1/2·R^−1/2·T^−1/2=Cye·v^1/2·D^1/2, n=number of electrons exchanged during the redox process; F=faradaic number=96485 C·mol^−1; A=electrode active surface; C=redox active molecule concentration; R=gas constant=8.314 J·K^−1·mol^−1; T=bulk temperature=299 K. The experiments are conducted by cyclic voltammetry at various scan rates ranging from 10 mV/s up to 20 V/s.
A graphic of lip,al and lip,cl=f(Cte×v^1/2) is plotted, if the redox process is reversible and diffusion controlled, the peak current should be proportional to the square root of the scan rate. The diffusion coefficients (oxidation and reduction) are then calculated by taking the square of the regression lines slopes. Diffusion coefficients (oxidation and reduction processes) are evaluated by plotting the peak current versus a constant multiplied by the square root of the scan rate. The plots regression line gives a straight line with perfect correlation coefficient (100%) confirming that the redox process is reversible and diffusion controlled. The square of each slope gives the associated coefficient diffusion in cm^2 s^−1.
The apparent heterogeneous rate constant during oxidation (k^0′O)/and reduction (k^0′R) process was calculated using Gileadi's equation (C. Rüssel, W. Jaenicke, Electrochimica Acta, Vol 27, N° 12, 1745-1750, 1982) log k^0′=−0.48α+0.52 +log[(nFαvcD)/(2.303RT)]^1/2; vc is the critical scan rate, it is calculated by plotting the peak potentials versus the logarithm of the scan rates, and is more precise when a very wide range of scan rates is used, which is the case here (0.010 up to 20 V·s^−1), it is determined at the x-axis of the point of intersection of the regression lines drawn at low and high scan rates; a is the transfer coefficient that is supposed to be close to 0.5 for all presented compounds.
Peak-to-peak separation ΔEp values were determined from the third cycle of each cyclic voltammogram (FIGS. 1 and 2) and are gathered in the following table 4.
The standard redox process reversibility evaluation is performed in diluted state, at 5 mM of concentration, at pH 14 buffered with 1 M of KOH. […]

[2] = format: physicochemical; conditions: pH 13.5
Description: (§1) Post-cycling analyses were carried out using ^1H NMR spectroscopy electrolytes. […] Taking into account the electrolyte-membrane contact time during this cycling test and the NMR spectroscopy resolution, the permeability coefficient of compound D4CH can be estimated below 10^−12 cm^2/s or less than 1% capacity loss per year of electrolyte-membrane contact.
as §1, with “M4SH” for “D4CH”

[3] = comparative redox active material in negolytes; cited from earlier work
[4] = Solubility in aqueous solution at various pH by shake-flask method; conditions: thermodynamic from solid
Description: An aqueous solution (containing either KCl 1M, KOH 1M or H2SO4 1M) is added over 100 mg of compound by 20 μL portions until complete solubilization. We obtain an approximate range of solubility values calculated as following:
Smax˜(m/M)/V; m=mass of evaluated compound (g); M=molar mass of evaluated compound (g·mol^−1); V=added volume (L).

[5] = Cycling tests of redox flow battery cells in constant power cycling mode
[6] = 0.2 M ARS, pH 14.0, Battery no 1, 60 mL, flowrate 0.5 mL/min/cm^2
[7] = 0.2 M ARS, pH 14.0, Battery no 1, 60 mL, flowrate 5 mL/min/cm^2
[8] = 0.2 M ARS, pH 14.0, Battery no 2, 120 mL, flowrate 0.5 mL/min/cm^2
[9] = 0.2 M ARS, pH 14.0, Battery no 2, 120 mL, flowrate 5 mL/min/cm^2
[10] = extrapolated from 5 days, flowrate 0.5 mL/min/cm^2, negolyte 120/120/40/370 mL
[11] = 0.3 M AQ-2,7-DS, pH 13.0, Battery no 3, 60 mL, flowrate 0.5 mL/min/cm^2
[12] = 0.3 M AQ-2,7-DS, pH 13.0, Battery no 3, 60 mL, flowrate 5 mL/min/cm^2
[13] = 0.3 M AQ-2,7-DS, pH 13.0, Battery no 4, 120 mL, flowrate 0.5 mL/min/cm^2
[14] = 0.3 M AQ-2,7-DS, pH 13.0, Battery no 4, 120 mL, flowrate 5 mL/min/cm^2
[15] = 0.3 M Complexone, pH 13.7, Battery no 5, 40 mL, flowrate 0.5 mL/min/cm^2
[16] = 0.3 M Complexone, pH 13.7, Battery no 5, 40 mL, flowrate 5 mL/min/cm^2

## O=C1c2ccccc2C(=O)c2c(OCCCS(=O)(=O)O)ccc(O)c21 [Compound M3SH]
other
  Solubility, solution at pH 0 (H2SO4 1M): 0.31 M
  Solubility, solution at pH 14 (KOH 1M): 0.23 M
[1]
  E^0′ apparent standard redox potential: −0.489 V vs NHE
  E1/2 half-wave potential: −0.489 V vs NHE
  k^0′O × 10^−2 apparent heterogeneous rate constant: 3.1 × 10^−2 cm/s
  DO × 10^−6 diffusion coefficient: 4.6 × 10^−6 cm^2/s
[1]; pH 13 (KOH 0.1 M)
  Peak-to-peak separation ΔEp: 97 mV
[1]; pH 14 (KOH 1 M)
  Peak-to-peak separation ΔEp: 40 mV

## O=C1c2ccccc2C(=O)c2c(OCCCCS(=O)(=O)O)ccc(O)c21 [Compound M4SH]
[2]
  compound degradation in negolyte after cycling: no traces of compound M4SH degradation were visible
other
  Solubility, solution at pH 14 (KOH 1M): 0.46 M
[1]
  E^0′ apparent standard redox potential: −0.494 V vs NHE
  E1/2 half-wave potential: −0.494 V vs NHE
  k^0′O × 10^−2 apparent heterogeneous rate constant: 3.1 × 10^−2 cm/s
  DO × 10^−6 diffusion coefficient: 5.8 × 10^−6 cm^2/s
[1]; pH 13 (KOH 0.1 M)
  Peak-to-peak separation ΔEp: 97 mV
[1]; pH 14 (KOH 1 M)
  Peak-to-peak separation ΔEp: 39 mV

## O=C1c2ccc(O)cc2C(=O)c2ccc(O)cc21 [DHAQ]
[3]
  DO × 10^−6: 4.8 × 10^−6 cm^2/s
  k^0′O × 10^−2: 0.70 × 10^−2 cm/s

## O=C1c2ccccc2C(=O)c2c(OCCCS(=O)(=O)[O-])ccc(OCCCS(=O)(=O)[O-])c21.[Na+].[Na+] [Compound D3SNa]
other
  Solubility, solution at pH 0 (H2SO4 1M): 0.15 M
  Solubility, solution at pH 14 (KOH 1M): 0.44 M

## Cc1cc2nc3c(=O)[nH]c(=O)nc-3n(C[C@H](O)[C@H](O)[C@H](O)COP(=O)([O-])O)c2cc1C.[Na+] [Flavine FMN-Na]
[3]
  DO × 10^−6: 1.3 × 10^−6 cm^2/s
  k^0′O × 10^−2: 0.53 × 10^−2 cm/s

## O=C1c2ccccc2C(=O)c2c(OCCCCS(=O)(=O)O)ccc(OCCCCS(=O)(=O)O)c21 [Compound D4SH]
other
  Solubility, solution at pH 0 (H2SO4 1M): 0.91 M
  Solubility, solution at pH 14 (KOH 1M): 0.78 M
[1]; pH 13 (KOH 0.1 M)
  Peak-to-peak separation ΔEp: 390 mV
[1]; pH 14 (KOH 1 M)
  Peak-to-peak separation ΔEp: 32 mV

## O=C1c2ccccc2C(=O)c2c(O)ccc(O)c21 [Quinizarin, quinizarin]
[4]; aqueous KOH 1M solution, pH 14, aqueous buffer
  solubility: < 50 mM

## O=C1c2ccccc2C(=O)c2c(OCCCS(=O)(=O)O)ccc(OCCCS(=O)(=O)O)c21 [Compound D3SH]
other
  Solubility, solution at pH 0 (H2SO4 1M): 0.73 M
  Solubility, solution at pH 14 (KOH 1M): 0.92 M
[1]; pH 13 (KOH 0.1 M)
  Peak-to-peak separation ΔEp: 246 mV
[1]; pH 14 (KOH 1 M)
  Peak-to-peak separation ΔEp: 40 mV

## C[N+](C)(C)CCC[n+]1ccc(-c2cc[n+](CCC[N+](C)(C)C)cc2)cc1.[Cl-].[Cl-].[Cl-].[Cl-] [BTMAP-Vi]
[3]
  DO × 10^−6: 3.3 × 10^−6 cm^2/s
  k^0′O × 10^−2: 2.2 × 10^−2 cm/s

## O=C(O)CCCOc1ccc2c(c1)C(=O)c1ccc(OCCCC(=O)O)cc1C2=O [DBEAQ]
[3]
  DO × 10^−6: 1.58 × 10^−6 cm^2/s
  k^0′O × 10^−2: 0.70 × 10^−2 cm/s

## O=C1c2ccccc2C(=O)c2c(OCCCCS(=O)(=O)[O-])ccc(O)c21.[Na+] [Compound M4SNa]
other
  Solubility, solution at pH 0 (H2SO4 1M): 0.37 M
  Solubility, solution at pH 14 (KOH 1M): 0.88 M

## O=C1c2ccccc2C(=O)c2c1cc(S(=O)(=O)O)c(O)c2O [ARS, 1,2-Dihydroxyanthraquinone-3-sulfonic acid sodium salt]
[5]; [6]
  Stability in cycles (−20%): 81 cycles
  Stability in days (−20%): 3.5 days
[5]; [7]
  Stability in cycles (−20%): 138 cycles
  Stability in days (−20%): 6.4 days
[5]; [8]
  Stability in cycles (−20%): 45 cycles
  Stability in days (−20%): 3.8 days
[5]; [9]
  Stability in cycles (−20%): 62 cycles
  Stability in days (−20%): 6.6 days
[5]; [10]
  Stability in cycles (−20%): 45 cycles
  Stability in days (−20%): 3.5 days

## O=C(O)CCCOc1ccc(OCCCC(=O)O)c2c1C(=O)c1ccccc1C2=O [Compound D3CH]
other
  Solubility, solution at pH 0 (H2SO4 1M): 0.30 M
  Solubility, solution at pH 14 (KOH 1M): 0.42 M
[1]; pH 13 (KOH 0.1 M)
  Peak-to-peak separation ΔEp: 267 mV
[1]; pH 14 (KOH 1 M)
  Peak-to-peak separation ΔEp: 46 mV

## O=C(O)CCCCOc1ccc(OCCCCC(=O)O)c2c1C(=O)c1ccccc1C2=O [Compound D4CH]
[2]
  compound degradation in negolyte after cycling: No traces of compound D4CH degradation were visible
other
  Solubility, solution at pH 0 (H2SO4 1M): 0.00 M
  Solubility, solution at pH 14 (KOH 1M): 0.46 M
[1]; pH 13 (KOH 0.1 M)
  Peak-to-peak separation ΔEp: 328 mV
[1]; pH 14 (KOH 1 M)
  Peak-to-peak separation ΔEp: 32 mV

## O=C1c2ccc(OCCCP(=O)(O)O)cc2C(=O)c2ccc(OCCCP(=O)(O)O)cc21 [DPPEAQ]
[3]
  DO × 10^−6: 1.37 × 10^−6 cm^2/s

## O=C1C=C(O)C(=O)C=C1O [DHBQ]
[3]
  DO × 10^−6: 3.66 × 10^−6 cm^2/s
  k^0′O × 10^−2: 0.21 × 10^−2 cm/s

## O=C1c2ccc(S(=O)(=O)O)cc2C(=O)c2cc(S(=O)(=O)O)ccc21 [AQ-2,7-DS, Anthraquinone-2,7-disulfonic acid disodium salt]
[3]
  DO × 10^−6: 3.8 × 10^−6 cm^2/s
  k^0′O × 10^−2: 0.72 × 10^−2 cm/s
[5]; [11]
  Stability in cycles (−20%): 563 cycles
  Stability in days (−20%): 27.1 days
[5]; [12]
  Stability in cycles (−20%): 378 cycles
  Stability in days (−20%): 21.1 days
[5]; [13]
  Stability in cycles (−20%): 0 cycles
  Stability in days (−20%): 0.0 days
[5]; [14]
  Stability in cycles (−20%): 173 cycles
  Stability in days (−20%): 19.6 days
[5]; constraints close to real systems, 0.3 M, pH 13.0
  behaviour after decreasing the flowrate down to 0.5 mL/min/cm^2: precipitates directly
[5]; [10]
  Stability in cycles (−20%): 0 cycles
  Stability in days (−20%): 0.0 days

## O=C(O)CN(CC(=O)O)Cc1cc2c(c(O)c1O)C(=O)c1ccccc1C2=O [Complexone, 3,4-Dihydroxyanthraquinon-2-yl-methylimino-diacetic acid]
[5]; [15]
  Stability in cycles (−20%): 63 cycles
  Stability in days (−20%): 3.2 days
[5]; [16]
  Stability in cycles (−20%): 69 cycles
  Stability in days (−20%): 3.4 days
[5]; [10]
  Stability in cycles (−20%): 74 cycles
  Stability in days (−20%): 3.3 days

## O=C1c2ccccc2C(=O)c2c(OCCCS(=O)(=O)O)ccc(O)c21 [Compound M3SNa]
[4]; aqueous H2SO4 1M solution, pH 0, aqueous buffer
  solubility: 460 mM (≈ 167 mg/mL)
[4]; unbuffered aqueous KCl 1M solution, saline or isotonic
  solubility: 320 mM (≈ 116 mg/mL)
